Patent US20200306333A1, “COMPOSITION FOR PREVENTING OR TREATING MUSCLE ATROPHY COMPRISING LYCII RADICIS CORTEX” (Industry-University Cooperation Foundation Hanyang …, priority 2019, published 2020)

Experiments:
Format in all cases: cell-based, mouse
Details in all cases: dexamethasone 1 μM
[1] = tested on: MuRF-1; assay: Western blotting of MuRF-1 in C2C12 myotubes
Text: (§1) Dexamethasone induces muscle atrophy by inhibiting muscle synthesis and inducing protein degradation. The effect of preventing and improving muscle atrophy of the lycii radicis cortex extract was investigated by inducing muscle atrophy by treating the differentiation-induced C2C12 cells of Example 2-1 with dexamethasone and then treating the muscle atrophy-induced cells with the lycii radicis cortex extract. Detailed experimental conditions are as follows.
(§2) (1) Control: The differentiated C2C12 cells were treated only with DMEM/high glucose supplemented with 1% penicillin for 48 hours.
(§3) (2) Negative control: The C2C12 cells were treated with DMEM/high glucose supplemented with 1% penicillin and 1 μM dexamethasone for 48 hours.
(§4) (3) Control+lycii radicis cortex extract: The cells were treated with 30 μg/mL of the lycii radicis cortex extract for 48 hours under the same condition as the control of (1).
(§5) (4) Negative control+lycii radicis cortex extract: The cells were treated with 30 μg/mL of the lycii radicis cortex extract for 48 hours under the same condition as the negative control of (2). […]

[2] = tested on: atrogin-1/MAFbx; assay: Western blotting of atrogin-1/MAFbx in C2C12 myotubes
Text: as §1, §2, §3, §4, §5

[3] = tested on: C2C12 myotubes; assay: Diameter (thickness) of C2C12 myotubes, dexamethasone-induced muscle atrophy
Description: C2C12 mouse myoblasts acquired from the Korean Collection for Type Cultures of the Korea Research Institute of Bioscience and Biotechnology were induced to divide for a total of 6 times (3 times×2 days). After the division was completed sufficiently, the C2C12 cells were seeded onto a 12-well plate and then divided for 2 days. As a division medium, HyClone™ DMEM/high glucose supplemented with 10% FBS (fetal bovine serum) and 1% penicillin was used.
When each well of the 12-well plate reached 90% confluency, the cells were treated with a differentiation medium (HyClone™ DMEM/high glucose supplemented with 2% HS (horse serum) and 1% penicillin). The differentiation medium was replaced every 2 days, and the treatment was performed for 6 days. Then, the differentiation-induced C2C12 myotubes were treated with HyClone™ supplemented with 1% penicillin for 24 hours and then subjected to the following experiment.
Dexamethasone induces muscle atrophy by inhibiting muscle synthesis and inducing protein degradation. […]
After treating the control groups and test groups for 48 hours in Example 2-2, the cells were imaged using the automated cell imaging system JuLi™ Stage and the thickness of the imaged cells was measured using the cell processing program Image J, with 50 cells per group.

SMILES: C[C@@H]1C[C@H]2[C@@H]3CCC4=CC(=O)C=C[C@]4(C)[C@@]3(F)[C@@H](O)C[C@]2(C)[C@@]1(O)C(=O)CO [dexamethasone]
- increase of activity of MuRF-1 as compared to the control group [1]: 3.513 fold
- MuRF-1 vs. GAPDH ([1]; 48 hours, Control = 100): 351.2904
- increase of activity of atrogin-1/MAFbx as compared to the control group [2]: 3.404 fold
- Atrogin-1/MAFbx vs. GAPDH ([2]; 48 hours, Control = 100): 340.3945
- Average thickness (μm) of 50 cells ([3]; 48 hours, C2C12 myotubes): 7.5933 μm
- decrease in thickness as compared to the control group ([3]; p<0.005): 30.54%
